The values below come from ChEMBL document CHEMBL1765078, “17-Hydroxycyclooctatin, a fused 5-8-5 ring diterpene, from Streptomyces sp. MTE4a” (J Nat Prod, 2011).

Activity calls are given as the source filed them. The rule behind the calls is not given here.

In this assay the test system is Staphylococcus aureus. The assay is described as follows: Antibacterial activity against Staphylococcus aureus at 1 mg/ml. The assay is classed as functional, organism-based.

For `C[C@H](CO)[C@H]1CC[C@]2(C)C[C@@H]3[C@H](CO)C[C@@H](O)[C@H]3[C@@](C)(O)C/C=C/12`, the result was inactive.
